Measurements taken from PMC6812009, “Covalent Aurora A regulation by the metabolic integrator coenzyme A” (Redox Biology, 2019).

Legend:
Experiment in all cases: Kinase profiling screen (radioactive filter-binding assay)
Type in all cases: biochemical
p38γ MAPK = target: T1, p38γ MAPK (Homo sapiens, UniProt P53778); conditions: 100 μM compound, 5 μM ATP; read-out: Kinase activity, % of activity in the absence of inhibitor
T1 sequence (P53778 1-367): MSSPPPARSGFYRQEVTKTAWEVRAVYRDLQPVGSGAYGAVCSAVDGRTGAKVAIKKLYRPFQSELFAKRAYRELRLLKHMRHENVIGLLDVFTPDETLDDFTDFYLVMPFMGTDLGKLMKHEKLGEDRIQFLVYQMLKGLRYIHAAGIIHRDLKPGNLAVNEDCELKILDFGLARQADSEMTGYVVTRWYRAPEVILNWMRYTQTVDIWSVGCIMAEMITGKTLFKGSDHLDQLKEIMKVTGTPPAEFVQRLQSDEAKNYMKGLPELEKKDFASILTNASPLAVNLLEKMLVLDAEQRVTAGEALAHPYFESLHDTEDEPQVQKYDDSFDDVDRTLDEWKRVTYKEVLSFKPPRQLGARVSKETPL
Procedure, shortened: (§1)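 Single-point in vitro screen: 100 μM final of CoA, dpCoA and ADP, run in duplicate against recombinant kinase with a model substrate and optimal ATP.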

PKCζ = target: T2, PKCζ (Homo sapiens, UniProt Q05513); conditions: 100 μM compound, 5 μM ATP; read-out: Kinase activity, % of activity in the absence of inhibitor
T2 sequence (Q05513 1-592): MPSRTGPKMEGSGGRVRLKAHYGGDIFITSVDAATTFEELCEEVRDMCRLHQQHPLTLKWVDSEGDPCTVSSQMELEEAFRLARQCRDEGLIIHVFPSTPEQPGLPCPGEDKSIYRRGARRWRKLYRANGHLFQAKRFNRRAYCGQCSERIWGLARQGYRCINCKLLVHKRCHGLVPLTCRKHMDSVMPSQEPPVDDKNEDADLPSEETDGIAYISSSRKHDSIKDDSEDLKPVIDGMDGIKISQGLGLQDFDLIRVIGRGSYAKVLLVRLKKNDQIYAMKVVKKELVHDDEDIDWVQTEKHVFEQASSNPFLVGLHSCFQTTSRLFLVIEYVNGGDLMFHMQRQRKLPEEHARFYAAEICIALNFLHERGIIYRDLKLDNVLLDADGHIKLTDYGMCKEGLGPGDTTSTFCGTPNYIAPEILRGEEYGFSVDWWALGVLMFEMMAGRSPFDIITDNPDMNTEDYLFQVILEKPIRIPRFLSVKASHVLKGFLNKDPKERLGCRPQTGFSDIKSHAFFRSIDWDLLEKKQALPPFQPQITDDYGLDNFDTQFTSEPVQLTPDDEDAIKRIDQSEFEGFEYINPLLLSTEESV
Procedure, shortened: as §1

JNK2 = JNK2 (Homo sapiens, UniProt P45984); conditions: 100 μM compound, 20 μM ATP; read-out: Kinase activity, % of activity in the absence of inhibitor
Procedure, shortened: as §1

MSPK1 = MSPK1 (Homo sapiens, UniProt O75716); conditions: 100 μM compound, 50 μM ATP; read-out: Kinase activity, % of activity in the absence of inhibitor
Procedure, shortened: as §1

GCK = target: T3, GCK (Homo sapiens, UniProt Q12851); conditions: 100 μM compound, 20 μM ATP; read-out: Kinase activity, % of activity in the absence of inhibitor
T3 sequence (Q12851 1-820): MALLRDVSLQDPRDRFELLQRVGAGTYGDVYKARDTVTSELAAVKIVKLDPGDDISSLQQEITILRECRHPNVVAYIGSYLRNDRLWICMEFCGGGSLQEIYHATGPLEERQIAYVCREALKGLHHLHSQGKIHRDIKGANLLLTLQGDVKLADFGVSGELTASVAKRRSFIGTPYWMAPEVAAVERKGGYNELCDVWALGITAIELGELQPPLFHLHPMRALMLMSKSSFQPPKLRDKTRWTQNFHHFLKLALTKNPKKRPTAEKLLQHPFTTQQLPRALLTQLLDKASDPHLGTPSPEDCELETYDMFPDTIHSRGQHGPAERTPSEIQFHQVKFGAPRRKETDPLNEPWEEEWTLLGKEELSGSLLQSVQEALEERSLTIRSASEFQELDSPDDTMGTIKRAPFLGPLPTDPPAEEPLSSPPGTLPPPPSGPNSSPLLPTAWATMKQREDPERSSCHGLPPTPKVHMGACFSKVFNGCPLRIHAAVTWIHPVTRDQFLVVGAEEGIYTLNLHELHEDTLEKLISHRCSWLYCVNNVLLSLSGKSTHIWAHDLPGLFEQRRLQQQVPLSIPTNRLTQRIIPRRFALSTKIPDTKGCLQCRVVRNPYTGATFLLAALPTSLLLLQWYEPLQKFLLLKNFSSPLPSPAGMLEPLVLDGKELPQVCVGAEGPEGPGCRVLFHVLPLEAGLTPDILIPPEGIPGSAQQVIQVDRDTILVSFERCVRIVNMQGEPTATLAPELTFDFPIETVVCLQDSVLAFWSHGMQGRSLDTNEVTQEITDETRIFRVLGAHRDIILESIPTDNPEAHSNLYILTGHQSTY
Procedure, shortened: as §1

MINK1 = MINK1 (Homo sapiens, UniProt Q8N4C8); conditions: 100 μM compound, 50 μM ATP; read-out: Kinase activity, % of activity in the absence of inhibitor
Procedure, shortened: as §1

MINK1, sequence (Q8N4C8 whole entry): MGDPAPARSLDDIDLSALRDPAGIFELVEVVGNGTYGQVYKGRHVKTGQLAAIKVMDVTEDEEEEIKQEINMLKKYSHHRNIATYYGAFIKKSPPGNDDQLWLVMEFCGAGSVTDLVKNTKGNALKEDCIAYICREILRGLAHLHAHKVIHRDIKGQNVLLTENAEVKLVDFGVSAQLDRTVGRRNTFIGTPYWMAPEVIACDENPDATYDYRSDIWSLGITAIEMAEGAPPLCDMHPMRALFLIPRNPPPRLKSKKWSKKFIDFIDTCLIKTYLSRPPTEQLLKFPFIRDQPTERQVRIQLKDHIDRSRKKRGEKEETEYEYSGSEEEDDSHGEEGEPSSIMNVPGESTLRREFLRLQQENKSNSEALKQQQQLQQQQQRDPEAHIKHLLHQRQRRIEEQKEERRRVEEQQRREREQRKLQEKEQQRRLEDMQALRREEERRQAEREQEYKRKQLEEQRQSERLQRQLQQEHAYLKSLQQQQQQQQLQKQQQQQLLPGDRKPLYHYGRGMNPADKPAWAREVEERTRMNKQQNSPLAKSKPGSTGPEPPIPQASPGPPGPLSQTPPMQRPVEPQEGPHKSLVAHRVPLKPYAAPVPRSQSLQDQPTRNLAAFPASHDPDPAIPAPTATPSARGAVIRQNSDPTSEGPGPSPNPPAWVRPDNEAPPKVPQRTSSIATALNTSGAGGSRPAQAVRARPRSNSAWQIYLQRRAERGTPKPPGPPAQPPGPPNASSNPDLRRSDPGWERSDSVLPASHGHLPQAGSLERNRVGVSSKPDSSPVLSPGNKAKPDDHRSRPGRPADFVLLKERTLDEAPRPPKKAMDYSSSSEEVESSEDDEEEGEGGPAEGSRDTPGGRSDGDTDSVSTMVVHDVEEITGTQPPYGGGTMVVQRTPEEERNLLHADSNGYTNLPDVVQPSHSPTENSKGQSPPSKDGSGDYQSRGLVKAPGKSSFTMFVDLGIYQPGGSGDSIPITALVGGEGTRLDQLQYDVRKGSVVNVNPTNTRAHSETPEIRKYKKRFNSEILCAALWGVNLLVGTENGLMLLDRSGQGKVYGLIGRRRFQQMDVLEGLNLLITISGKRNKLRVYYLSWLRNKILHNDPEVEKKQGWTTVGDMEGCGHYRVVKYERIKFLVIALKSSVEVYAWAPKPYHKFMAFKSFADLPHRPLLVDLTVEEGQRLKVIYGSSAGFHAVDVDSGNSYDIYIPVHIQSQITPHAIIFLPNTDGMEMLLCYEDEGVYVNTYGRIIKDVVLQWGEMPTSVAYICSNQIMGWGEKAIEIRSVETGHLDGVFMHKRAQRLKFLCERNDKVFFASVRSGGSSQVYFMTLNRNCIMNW
MSPK1, sequence (O75716 whole entry): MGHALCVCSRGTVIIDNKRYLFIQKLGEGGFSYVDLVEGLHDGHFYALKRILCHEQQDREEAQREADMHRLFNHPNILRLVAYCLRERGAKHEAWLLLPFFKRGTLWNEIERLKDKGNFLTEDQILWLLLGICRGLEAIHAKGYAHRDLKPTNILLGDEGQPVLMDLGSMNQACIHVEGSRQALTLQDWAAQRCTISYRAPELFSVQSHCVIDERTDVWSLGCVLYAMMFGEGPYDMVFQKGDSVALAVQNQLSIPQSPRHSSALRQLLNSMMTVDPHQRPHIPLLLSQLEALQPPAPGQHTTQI
JNK2, sequence (P45984 whole entry): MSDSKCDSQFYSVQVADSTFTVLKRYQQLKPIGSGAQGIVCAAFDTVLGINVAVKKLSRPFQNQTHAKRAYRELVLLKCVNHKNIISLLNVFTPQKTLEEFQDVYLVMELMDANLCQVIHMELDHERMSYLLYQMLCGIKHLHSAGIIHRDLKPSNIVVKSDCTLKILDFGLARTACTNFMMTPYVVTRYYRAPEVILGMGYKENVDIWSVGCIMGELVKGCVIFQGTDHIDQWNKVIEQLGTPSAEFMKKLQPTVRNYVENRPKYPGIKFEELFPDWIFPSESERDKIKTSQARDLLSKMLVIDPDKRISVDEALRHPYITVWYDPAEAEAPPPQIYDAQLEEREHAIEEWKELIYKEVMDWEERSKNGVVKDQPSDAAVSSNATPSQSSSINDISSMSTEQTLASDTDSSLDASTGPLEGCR

Nc1ncnc2c1ncn2C1OC(COP(=O)(O)OP(=O)(O)O)C(O)C1O (stereo not drawn) [ADP]
activity at 100 µM (p38γ MAPK): 26%
activity at 100 µM (PKCζ): 37.7%
activity at 100 µM (JNK2): 57.3%
activity at 100 µM (MSPK1): 94.1%
activity at 100 µM (GCK): 56.5%
activity at 100 µM (MINK1): 49.4%

CC(C)(COP(=O)(O)OP(=O)(O)OC[C@H]1O[C@@H](n2cnc3c(N)ncnc32)[C@H](O)[C@@H]1OP(=O)(O)O)[C@@H](O)C(=O)NCCC(=O)NCCS [CoA, Coenzyme A]
activity at 100 µM (p38γ MAPK): 127%
activity at 100 µM (PKCζ): 99.3%
activity at 100 µM (JNK2): 93.9%
activity at 100 µM (MSPK1): 102%
activity at 100 µM (GCK): 109%
activity at 100 µM (MINK1): 106%

CC(C)(COP(=O)(O)OP(=O)(O)OCC1OC(n2cnc3c(N)ncnc32)C(O)C1O)C(O)C(=O)NCCC(=O)NCCS (stereo not drawn) [dpCoA, dephospho-CoA]
activity at 100 µM (p38γ MAPK): 65.9%
activity at 100 µM (PKCζ): 89.9%
activity at 100 µM (JNK2): 76.1%
activity at 100 µM (MSPK1): 102%
activity at 100 µM (GCK): 71.2%
activity at 100 µM (MINK1): 104%
